Source: patent publication US20260083759A1, “Combinations Comprising Psychedelics for the Treatment of Schizophrenia and Other Neuropsychiatric and Neurologic Disorders” (HADASIT MEDICAL RESEARCH SERVICES AND DEVELOPMENT LTD, priority 2022, published 2026)

Assays:
[1] = tested on: GAP43; assay: Western Blot of synaptic protein GAP43 in brain regions, 7 days post-administration; format: in vivo, mice; conditions: for GAP43 protein levels: single i.p. injection (psilocybin 4.4 mg/kg, D-Serine 3 g/kg or both), 7 days post-administration, vs saline controls (FIG. 4)
Description: (§1) Specifically, ICR mice were administered a single intra-peritoneal injection of psilocybin at a dosage of 4.4 mg/kg, D-Serine at a dosage of 3 g/kg, a combined psilocybin dosage of 4.4 mg/kg+D-Serine dosage of 3 g/kg and compared to control animals (administered a saline vehicle). 7 days post-administration, animals were harvested, and individual brain regions were dissected, homogenized and processed for Western Blot analysis, probing for GAP43, Synaptophysin and SV2A protein expression, using commercially available reagents (Abcam).
(§2) Animals injected with PSIL or D-SER or the combination of the two were specifically probed for changes in synaptic protein expression, for proteins that are pivotally involved in neuroplasticity of the brain, focusing on 4 key regions: the brain frontal cortex, hippocampus, amygdala and striatum.
(§3) In order to comparatively assess all the effects of individual DSER or PSIL and combined DSER and PSIL administration on each brain region, a nested analysis of variance in which the level each of the synaptic proteins was compared to controls was assessed across the four brain regions frontal cortex, hippocampus, amygdala and striatum (FIG. 6).

[2] = tested on: SV2A; assay: Western Blot of synaptic protein SV2A in brain regions, 7 days post-administration; format: in vivo, mice; conditions: hippocampus; single i.p. injection (D-Serine 3 g/kg or with psilocybin 4.4 mg/kg); 7 days post-administration (FIG. 5)
Description: as §1, §2, §3

[3] = tested on: Synaptophysin; assay: Western Blot of synaptic protein Synaptophysin in brain regions, 7 days post-administration; format: in vivo, mice
Description: as §1, §2, §3

[4] = tested on: male ICR mice; assay: Head twitch response (HTR) induced by psilocybin in mice; format: in vivo
Text: The head twitch response (HTR) induced by serotonergic psychedelic agents such as psilocybin (PSIL) in rodents, is a characteristic behavioral effect mediated by cortical 5-HT2A receptors that is highly correlated with the psychedelic trip induced by these agents in humans.
In order to determine whether the negative effects such as HTR could be blocked in schizophrenic patients administered psilocybin (PSIL) (which ordinarily would produce “trip-induced effects”) upon further receiving clozapine (CLZ), the effect of concurrent CLZ treatment in blocking the HTR-inducing effect of PSIL in mice was examined.
Toward this end, male ICR mice (aged 8 weeks) were implanted with mini car-magnets and were administered the following treatments intraperitoneally (i.p.): • 1. CLZ at a dosage of 1 or 2 mg/kg weight; • 2. PSIL at a dosage of 4.4 mg/kg weight; • 3. CLZ at a dosage of 1 mg/kg weight and PSIL at a dosage of 4.4 mg/kg weight; • 4. CLZ at a dosage of 2 mg/kg weight and PSIL at a dosage of 4.4 mg/kg weight; and • 5. Vehicle (Saline) controls.
CLZ was administered 30 minutes before PSIL. All injection volumes were identical. HTR was assessed in up to 6 mice simultaneously over a 20-minute period using a purpose-built magnetometer and custom software. Experiments were approved by the Authority for Biological and Biomedical Models, Hebrew University
To further extend these studies, it was of interest to determine the HTR effects induced by Psilocybin when mice were pre-administered D-Serine 3000 mg/kg, as opposed to CLZ (FIG. 2A), or D-Serine 1500 mg/kg, as opposed to CLZ (FIG. 2B).

[5] = tested on: ICR mice; assay: MK-801 induced hyperactivity in the open field; format: in vivo; conditions: MK-801 0.1 mg/kg i.p. immediately before open field for one hour (FIG. 3A)
Description: Hyperactivity induced in rodents by the NMDA receptor antagonist, MK-801, is a key rodent pharmacological model of acute psychotic features in humans.
Drugs which induce psychosis in humans enhance MK-801 induced hyperactivity in rodents while antipsychotic drugs reduce or block the effect.
In order to determine the interactive effects of PSIL and CLZ, a murine model was used where MK-801 induced hyperactivity, was assessed, which serves as a surrogate system for psychotic symptoms in schizophrenia patients.
Toward this end PSIL and CLZ alone and in combination were evaluated for their effects on MK-801 induced hyperactivity in […].
ICR mice were administered MK-801 intra-peritoneally, at a dose of 0.1 mg/kg immediately before they were placed in an open field for one hour. 30 minutes prior to administration of MK-801, mice were pretreated as follows: • 1. PSIL at a dosage of 4.4 mg/kg; • 2. CLZ at a dosage of 1.0 mg/kg; • 3. PSIL at a dosage of 4.4 mg/kg and CLZ at a dosage of 1.0 mg/kg; • 4. D-Serine (DSR) at a dosage of 3000 mg/kg; • 5. D-cycloserine (DCS) at a dosage of 320 mg/kg; • 6. […]
Activity in the open field was monitored by an overhead camera and was recorded by a Noldus Ethovision apparatus. […] Distance moved/travelled in the open field, center duration and center frequency were evaluated in the open field arena.

[6] = across the four brain regions frontal cortex, hippocampus, amygdala and striatum, 7 days post-administration (FIG. 6)

N[C@H](CO)C(=O)O [D-Serine]
GAP43 levels, nested analysis of variance compared to controls [1, 6]: increase | GAP43 protein levels ([1]; amygdala): significantly increased | GAP43 protein levels ([1]; frontal cortex): significantly increased | SV2A expression [2]: increased | Synaptophysin expression, nested analysis of variance compared to controls [3, 6]: increasing levels | synaptophysin protein expression ([3]; frontal cortex, single i.p. injection D-Serine 3 g/kg, 7 days post-administration (FIG. 5)): increased | PSIL-mediated increased HTR ([4]; D-Serine 3000 mg/kg (FIG. 2A) or 1500 mg/kg (FIG. 2B) pre-administered before Psilocybin): significantly reduced | HTR ([4]; DSR alone): did not affect HTR | PSIL-mediated HTR over time ([4]; lower D-serine dose with PSIL (FIG. 2C)): consistent over time

N[C@@H]1CONC1=O [DCS, D-cycloserine]
HTR ([4]; DCS alone): did not affect HTR | PSIL-mediated increased HTR over time ([4]; plotted for up to 30 minutes, DCS at doses of over 320 mg/kg with PSIL (FIG. 2E)): rapid abrogation

C[C@]12N[C@H](Cc3ccccc31)c1ccccc12 [MK-801]
distance travelled in the open field [5]: marked movement
